# Tests used:
# [1] = biological target: Phosphatidylinositol 4,5-bisphosphate 3-kinase catalytic subunit gamma isoform (Homo sapiens, UniProt P48736); assay: Inhibition of recombinant human N-terminal His6-tagged full length P120gamma expressed in baculovirus infected Sf21 insect cells using PIP2 as substrate preincubated for 15 mins followed by substrate addition and measured after 60 mins by HTRF assay
# [2] = Intrinsic clearance in Wistar Han rat liver microsomes at 0.5 uM measured up to 45 mins in presence of NADPH by LC-MS/MS analysis; assay type: ADME, Microsome; details: read-out: CLH
# [3] = biological target: T1, Phosphatidylinositol 4,5-bisphosphate 3-kinase catalytic subunit delta isoform (Homo sapiens, UniProt O00329); assay: Inhibition of PI3Kdelta in human whole blood assessed as reduction in cytostim-stimulated IFNgamma production preincubated for 1 hr followed by cytostim stimulation and measured after 20 hrs by electrochemiluminescence assay
# T1 sequence (O00329 whole entry): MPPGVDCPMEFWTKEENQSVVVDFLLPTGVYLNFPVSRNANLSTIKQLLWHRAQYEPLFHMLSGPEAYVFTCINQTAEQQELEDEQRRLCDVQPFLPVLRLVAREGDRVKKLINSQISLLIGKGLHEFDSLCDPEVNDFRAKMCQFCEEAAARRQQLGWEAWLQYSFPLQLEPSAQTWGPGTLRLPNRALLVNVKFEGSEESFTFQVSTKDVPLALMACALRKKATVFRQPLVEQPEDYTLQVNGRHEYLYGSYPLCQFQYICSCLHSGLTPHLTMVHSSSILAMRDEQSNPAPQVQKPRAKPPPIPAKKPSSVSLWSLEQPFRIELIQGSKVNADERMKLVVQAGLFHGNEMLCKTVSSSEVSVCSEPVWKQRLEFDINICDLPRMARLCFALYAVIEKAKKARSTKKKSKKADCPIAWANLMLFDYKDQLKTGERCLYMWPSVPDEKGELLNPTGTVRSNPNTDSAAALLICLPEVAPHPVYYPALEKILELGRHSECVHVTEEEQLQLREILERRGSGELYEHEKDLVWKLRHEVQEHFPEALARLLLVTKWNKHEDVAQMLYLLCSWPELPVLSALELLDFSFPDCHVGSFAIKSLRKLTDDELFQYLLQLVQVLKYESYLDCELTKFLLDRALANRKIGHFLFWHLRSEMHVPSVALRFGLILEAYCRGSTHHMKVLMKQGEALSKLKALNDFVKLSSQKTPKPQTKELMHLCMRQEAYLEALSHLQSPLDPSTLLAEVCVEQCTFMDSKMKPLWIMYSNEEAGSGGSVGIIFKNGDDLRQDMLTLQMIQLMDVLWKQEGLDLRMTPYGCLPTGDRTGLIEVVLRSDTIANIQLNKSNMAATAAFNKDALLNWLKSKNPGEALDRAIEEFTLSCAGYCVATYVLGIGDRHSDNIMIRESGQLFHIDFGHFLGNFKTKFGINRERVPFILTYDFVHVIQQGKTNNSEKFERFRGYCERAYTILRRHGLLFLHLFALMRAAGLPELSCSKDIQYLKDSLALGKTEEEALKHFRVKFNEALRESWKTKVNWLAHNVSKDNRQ
# [4] = biological target: PI3-kinase p110-delta/p85-alpha (Homo sapiens, UniProt O00329); assay: Inhibition of recombinant human N-terminal His6-tagged full length P110delta/full length untagged human p85alpha expressed in baculovirus infected Sf21 insect cells using PIP2 as substrate preincubated for 15 mins followed by substrate addition and measured after 60 mins by HTRF assay
# [5] = biological target: PI3-kinase p110-alpha/p85-alpha (Homo sapiens, UniProt P42336); assay: Inhibition of recombinant human N-terminal His6-tagged full length P110alpha/full length untagged human p85alpha expressed in baculovirus infected Sf21 insect cells using PIP2 as substrate preincubated for 15 mins followed by substrate addition and measured after 60 mins by HTRF assay
# in vitro = details: human, pooled liver microsomes
# Description: Intrinsic clearance in pooled human liver microsomes at 0.5 uM measured up to 45 mins in presence of NADPH by LC-MS/MS analysis
# [6] = Lipophilicity, log D of compound by chromatographic method; assay type: physicochemical
# PI3K p110 beta/p85 alpha = PI3K p110 beta/p85 alpha (Homo sapiens, UniProt P42338); assay: Inhibition of recombinant human N-terminal His6-tagged full length P110beta/full length untagged human p85alpha expressed in baculovirus infected Sf21 insect cells using PIP2 as substrate preincubated for 15 mins followed by substrate addition and measured after 60 mins by HTRF assay
# PI3K p110 beta/p85 alpha, sequence (P27986 whole entry): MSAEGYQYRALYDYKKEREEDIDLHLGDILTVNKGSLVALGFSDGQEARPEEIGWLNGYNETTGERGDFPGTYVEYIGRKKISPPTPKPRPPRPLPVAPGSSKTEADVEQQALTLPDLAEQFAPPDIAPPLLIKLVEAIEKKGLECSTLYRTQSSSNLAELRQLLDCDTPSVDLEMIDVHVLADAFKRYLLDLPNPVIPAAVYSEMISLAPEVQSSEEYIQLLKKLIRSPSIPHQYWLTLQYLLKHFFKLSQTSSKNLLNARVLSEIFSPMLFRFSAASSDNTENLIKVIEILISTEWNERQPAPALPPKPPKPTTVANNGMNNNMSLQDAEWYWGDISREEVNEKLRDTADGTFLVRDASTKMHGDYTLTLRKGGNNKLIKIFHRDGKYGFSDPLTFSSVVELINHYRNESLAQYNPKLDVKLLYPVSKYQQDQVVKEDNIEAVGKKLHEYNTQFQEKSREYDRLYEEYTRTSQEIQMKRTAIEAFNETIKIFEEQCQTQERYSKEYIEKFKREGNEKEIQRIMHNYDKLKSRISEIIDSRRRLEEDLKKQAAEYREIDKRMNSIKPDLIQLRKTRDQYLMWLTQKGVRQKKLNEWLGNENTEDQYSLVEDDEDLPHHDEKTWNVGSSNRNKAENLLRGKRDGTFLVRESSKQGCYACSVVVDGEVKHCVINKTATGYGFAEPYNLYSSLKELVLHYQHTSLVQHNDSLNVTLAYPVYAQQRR
# PI3K p110 beta/p85 alpha, sequence (P42338 whole entry): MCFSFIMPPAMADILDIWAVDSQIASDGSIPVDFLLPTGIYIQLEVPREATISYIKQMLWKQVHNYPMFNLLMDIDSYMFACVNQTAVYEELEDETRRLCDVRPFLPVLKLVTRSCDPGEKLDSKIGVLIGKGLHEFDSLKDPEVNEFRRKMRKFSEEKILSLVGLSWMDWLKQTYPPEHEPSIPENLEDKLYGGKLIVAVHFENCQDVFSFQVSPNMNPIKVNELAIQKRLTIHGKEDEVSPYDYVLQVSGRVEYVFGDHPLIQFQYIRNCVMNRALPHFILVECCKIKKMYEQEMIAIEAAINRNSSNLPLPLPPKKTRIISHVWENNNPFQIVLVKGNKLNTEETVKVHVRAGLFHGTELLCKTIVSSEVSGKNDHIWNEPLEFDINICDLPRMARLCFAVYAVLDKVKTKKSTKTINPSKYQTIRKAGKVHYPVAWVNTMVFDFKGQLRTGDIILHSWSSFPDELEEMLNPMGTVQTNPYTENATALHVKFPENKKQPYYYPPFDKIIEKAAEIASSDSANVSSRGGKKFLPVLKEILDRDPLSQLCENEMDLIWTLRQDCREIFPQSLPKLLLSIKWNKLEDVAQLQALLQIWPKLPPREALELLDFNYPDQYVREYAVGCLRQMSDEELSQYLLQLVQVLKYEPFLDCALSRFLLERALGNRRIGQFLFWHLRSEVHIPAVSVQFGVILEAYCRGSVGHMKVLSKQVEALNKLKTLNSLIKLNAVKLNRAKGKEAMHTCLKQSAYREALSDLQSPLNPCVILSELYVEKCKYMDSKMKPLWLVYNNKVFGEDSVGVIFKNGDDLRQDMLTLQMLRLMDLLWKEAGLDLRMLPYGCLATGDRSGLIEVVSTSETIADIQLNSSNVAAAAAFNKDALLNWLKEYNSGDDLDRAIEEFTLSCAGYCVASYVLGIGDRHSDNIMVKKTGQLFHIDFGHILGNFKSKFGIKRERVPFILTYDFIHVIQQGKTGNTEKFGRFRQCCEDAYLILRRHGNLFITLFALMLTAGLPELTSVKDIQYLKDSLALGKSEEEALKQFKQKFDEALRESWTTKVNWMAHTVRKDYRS
# Phosphatidylinositol 4,5-bisphosphate 3-kinase catalytic subunit gamma isoform, sequence (P48736 whole entry, canonical isoform): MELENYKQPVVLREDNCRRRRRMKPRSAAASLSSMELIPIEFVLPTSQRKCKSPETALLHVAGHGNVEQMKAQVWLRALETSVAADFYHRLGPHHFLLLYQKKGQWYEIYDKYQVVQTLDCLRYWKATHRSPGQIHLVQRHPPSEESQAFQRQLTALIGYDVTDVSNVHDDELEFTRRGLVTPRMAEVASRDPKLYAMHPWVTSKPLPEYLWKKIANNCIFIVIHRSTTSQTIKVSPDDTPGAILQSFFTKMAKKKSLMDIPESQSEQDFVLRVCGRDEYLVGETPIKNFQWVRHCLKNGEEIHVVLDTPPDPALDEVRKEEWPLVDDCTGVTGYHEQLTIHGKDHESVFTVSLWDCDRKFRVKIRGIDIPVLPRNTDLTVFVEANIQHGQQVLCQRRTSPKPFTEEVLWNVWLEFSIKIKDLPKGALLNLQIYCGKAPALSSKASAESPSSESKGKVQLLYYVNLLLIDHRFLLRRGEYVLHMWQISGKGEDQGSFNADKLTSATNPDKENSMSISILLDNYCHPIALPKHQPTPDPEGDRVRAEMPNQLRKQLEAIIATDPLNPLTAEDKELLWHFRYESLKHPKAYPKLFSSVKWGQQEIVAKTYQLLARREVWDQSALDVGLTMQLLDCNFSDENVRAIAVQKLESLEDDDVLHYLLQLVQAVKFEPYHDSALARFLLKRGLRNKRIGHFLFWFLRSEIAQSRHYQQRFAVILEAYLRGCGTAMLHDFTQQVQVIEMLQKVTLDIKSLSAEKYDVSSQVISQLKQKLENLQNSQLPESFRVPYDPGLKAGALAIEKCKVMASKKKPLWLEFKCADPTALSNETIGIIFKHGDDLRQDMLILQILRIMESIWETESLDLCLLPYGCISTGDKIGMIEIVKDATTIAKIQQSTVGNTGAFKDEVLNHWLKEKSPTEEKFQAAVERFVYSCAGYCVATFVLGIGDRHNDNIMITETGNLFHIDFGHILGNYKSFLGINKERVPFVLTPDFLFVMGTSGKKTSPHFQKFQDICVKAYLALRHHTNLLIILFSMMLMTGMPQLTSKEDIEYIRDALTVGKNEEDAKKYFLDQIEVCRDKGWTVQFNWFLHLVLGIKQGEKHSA
# PI3-kinase p110-alpha/p85-alpha, sequence (P27986 whole entry): as the sequence (P27986 whole entry) above
# PI3-kinase p110-alpha/p85-alpha, sequence (P42336 whole entry): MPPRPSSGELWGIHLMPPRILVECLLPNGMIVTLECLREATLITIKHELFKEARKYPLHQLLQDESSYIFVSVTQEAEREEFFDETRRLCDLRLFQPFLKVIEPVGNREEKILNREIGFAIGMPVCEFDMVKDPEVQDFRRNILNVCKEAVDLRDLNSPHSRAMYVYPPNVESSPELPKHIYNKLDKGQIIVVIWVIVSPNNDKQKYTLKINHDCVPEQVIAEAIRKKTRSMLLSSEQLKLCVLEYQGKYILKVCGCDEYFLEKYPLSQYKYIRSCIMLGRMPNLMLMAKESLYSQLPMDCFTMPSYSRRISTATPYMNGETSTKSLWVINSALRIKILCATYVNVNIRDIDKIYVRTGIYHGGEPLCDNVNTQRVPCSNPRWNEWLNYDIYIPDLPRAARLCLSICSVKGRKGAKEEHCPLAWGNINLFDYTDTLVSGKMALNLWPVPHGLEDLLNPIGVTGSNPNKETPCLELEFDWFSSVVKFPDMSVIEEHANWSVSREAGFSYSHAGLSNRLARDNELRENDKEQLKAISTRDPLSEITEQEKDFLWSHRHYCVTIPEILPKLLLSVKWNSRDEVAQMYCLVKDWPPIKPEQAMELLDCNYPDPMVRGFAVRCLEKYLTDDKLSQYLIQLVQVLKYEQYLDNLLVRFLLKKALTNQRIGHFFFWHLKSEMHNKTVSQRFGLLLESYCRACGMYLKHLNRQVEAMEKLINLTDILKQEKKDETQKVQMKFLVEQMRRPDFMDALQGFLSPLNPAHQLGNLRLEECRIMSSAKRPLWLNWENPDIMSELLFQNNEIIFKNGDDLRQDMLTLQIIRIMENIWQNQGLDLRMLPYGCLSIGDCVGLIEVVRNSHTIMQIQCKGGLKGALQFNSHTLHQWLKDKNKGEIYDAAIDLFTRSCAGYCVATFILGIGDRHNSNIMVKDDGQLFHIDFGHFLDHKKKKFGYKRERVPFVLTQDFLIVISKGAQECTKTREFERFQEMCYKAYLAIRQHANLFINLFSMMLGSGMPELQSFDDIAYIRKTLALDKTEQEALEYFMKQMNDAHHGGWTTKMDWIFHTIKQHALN
# PI3-kinase p110-delta/p85-alpha, sequence (P27986 whole entry, one chain of several): as the sequence (P27986 whole entry) above
Compound,pIC50 ([1]; sf21),CLint scaled at 0.5 µM [2],IC50 [3],IC50 [4],IC50 [5],"CLint scaled at 0.75 h, 0.5 µM (in vitro)",chromatographic logD [6],IC50 (PI3K p110 beta/p85 alpha),IC50 [1],Ki [4]
COc1ncc(N2CCOCC2)cc1S(=O)(=O)Nc1cncc(C#CCN2CCN(C(C)C)CC2)c1,> 4.5,< 0.46 mL/min/kg,158 nM,31.6 nM,20000 nM,< 0.4 mL/min/kg,1.6,15800 nM,,
COc1ncc(C2=CCOCC2)cc1S(=O)(=O)Nc1cncc(-c2cccc(CN3CCCC3)c2)c1,,1.1 mL/min/kg,200 nM,6.31 nM,5010 nM,0.71 mL/min/kg,2.4,794 nM,3980 nM,
COc1ncc(C2=CCOCC2)cc1S(=O)(=O)Nc1cncc(-c2ccc(CN3CCCCC3)s2)c1,,,31.6 nM,2.51 nM,1580 nM,,4.7,100 nM,1580 nM,
COc1ncc(C2=CCOCC2)cc1S(=O)(=O)Nc1cncc(-c2cccc(CN3CCCCC3)c2)c1,,3.98 mL/min/kg,79.4 nM,5.01 nM,5010 nM,1.88 mL/min/kg,3.5,1260 nM,6310 nM,
COc1ncc(N2CCOCC2)cc1S(=O)(=O)Nc1cncc(-c2ccc(CN3CCCC3)c(F)c2)c1,,< 0.46 mL/min/kg,63.1 nM,12.6 nM,3980 nM,< 0.4 mL/min/kg,2.2,2510 nM,10000 nM,
COc1ncc(N2CCOCC2)cc1S(=O)(=O)Nc1cncc(-c2ccc(CN3CCN(C(C)C)CC3)cc2F)c1 [listing 1 of 2 here],,< 0.46 mL/min/kg,,1.26 nM,501 nM,0.65 mL/min/kg,2.6,3980 nM,2510 nM,
COc1ncc(N2CCOCC2)cc1S(=O)(=O)Nc1ccnc(-c2ccc(CN3CCC(C(C)(C)O)CC3)cc2F)c1,,< 0.46 mL/min/kg,10 nM,1.58 nM,2510 nM,< 0.4 mL/min/kg,2.1,2510 nM,3160 nM,0.0501 nM
COc1ncc(N2CCOCC2)cc1S(=O)(=O)Nc1cncc(-c2ccc(CN3CCN(C(C)C)CC3)cc2F)c1 [listing 2 of 2 here],,,3.16 nM,,,,,,,
COc1ncc(C2=CCOCC2)cc1S(=O)(=O)Nc1cncc(-c2ccc(CN3CCN(C(C)C)CC3)nc2)c1,,< 0.46 mL/min/kg,31.6 nM,1.26 nM,1260 nM,0.43 mL/min/kg,1.8,3980 nM,5010 nM,0.0251 nM
COc1ncc(C2=CCOCC2)cc1S(=O)(=O)Nc1cncc(-c2ccc(CN3CCN(C)CC3)cc2)c1,,0.96 mL/min/kg,39.8 nM,3.16 nM,251 nM,1.64 mL/min/kg,2.3,501 nM,3160 nM,
COc1ncc(C2=CCOCC2)cc1S(=O)(=O)Nc1cncc(-c2ccc(CN(C)C)cc2)c1,,0.66 mL/min/kg,79.4 nM,7.94 nM,5010 nM,< 0.4 mL/min/kg,2,1000 nM,10000 nM,
COc1ncc(N2CCOCC2)cc1S(=O)(=O)Nc1ccnc(-c2ccc(CN3CCN(C(C)C)CC3)c(F)c2F)c1 [listing 1 of 2 here],,< 0.46 mL/min/kg,3.16 nM,1.58 nM,1260 nM,0.47 mL/min/kg,2.2,5010 nM,,0.0631 nM
COc1ncc(C2=CCOCC2)cc1S(=O)(=O)Nc1ccccc1,,,3980 nM,200 nM,3980 nM,,,2510 nM,7940 nM,
COc1ncc(N2CCOCC2)cc1S(=O)(=O)Nc1cncc(-c2ccc(CN3CCCC3)cc2)c1 [listing 1 of 2 here],,,,,,,,,10000 nM,
COc1ncc(C2=CCOCC2)cc1S(=O)(=O)Nc1cncc(C2CC2CN(C)C)c1 (centres undefined),,,,126 nM,6310 nM,,1.2,1260 nM,7940 nM,
COc1ncc(N2CCOCC2)cc1S(=O)(=O)Nc1ccnc(-c2ccc(CN3CCN(C(C)(C)C)CC3)cc2)c1 [listing 1 of 2 here],,< 0.46 mL/min/kg,7.94 nM,0.794 nM,,< 0.4 mL/min/kg,1.3,,,0.0251 nM
COc1ncc(N2CCOCC2)cc1S(=O)(=O)Nc1ccnc(-c2ccc(CN3CCN(C(C)(C)C)CC3)cc2)c1 [listing 2 of 2 here],,,,,1580 nM,,,6310 nM,3980 nM,
COc1ncc(C2=CCOCC2)cc1S(=O)(=O)Nc1cncc(-c2ccc(N3CCN(C(C)C)CC3)cc2)c1,,,50.1 nM,3.16 nM,316 nM,,3.8,316 nM,7940 nM,
COc1ncc(C2=CCOCC2)cc1S(=O)(=O)Nc1cncc(C#CCN2C[C@@H](C)O[C@@H](C)C2)c1,,5.59 mL/min/kg,,3.98 nM,6310 nM,3.64 mL/min/kg,3.6,5010 nM,5010 nM,
COc1ncc(C2=CCOCC2)cc1S(=O)(=O)Nc1cncc(C2=CCN(C)CC2)c1,,,,316 nM,20000 nM,,1.5,5010 nM,5010 nM,
COc1ncc(N2CCOCC2)cc1S(=O)(=O)Nc1ccnc(-c2ccc(CN3CCN(C(C)C)CC3)c(F)c2F)c1 [listing 2 of 2 here],,,,,,,,,2000 nM,
COc1ncc(N2CCOCC2)cc1S(=O)(=O)Nc1cncc(-c2ccc(CN3CCCC3)cc2)c1 [listing 2 of 2 here],,< 0.46 mL/min/kg,79.4 nM,20 nM,5010 nM,< 0.4 mL/min/kg,1.9,2000 nM,,

# From ChEMBL document CHEMBL4825755 (J Med Chem, 2021)
